Measurements: publication PMC5520492, “Inhibition of DNA2 nuclease as a therapeutic strategy targeting replication stress in cancer cells” (Oncogenesis, 2017)
Structures can show the parent of a compound that is named as a salt. Where two headings read alike, the source gives them in different places.

What was measured:
yDna2 = molecular target: T1, yDna2 (Saccharomyces cerevisiae, UniProt P38859); experiment: High-throughput fluorescence nuclease assay with yDna2 (triply labeled (dT)30 ssDNA); format: biochemical, yeast; conditions: for inhibition at 33.33 µM: read-out: % Inhibition yDna2
T1 construct: made in house
Description: (§1) The screen entailed the use of oligonucleotide (dT)30 having a reporter fluorescent moiety, 6-FAM on the 5′ end, and the dark quenching group, Iowa Black FQ, on the 3′ end. In addition, a second dark quencher ZEN was placed between the 9th and 10th base (Figure 2a). The fluorescence emitted by 6-FAM is quenched by FRET, but it increases when DNA is degraded by Dna2. […] The inhibitory activity of the compounds was determined as a reduction in fluorescent signal compared with the dimethylsulfoxide (DMSO) only control. […] We screened ~50 000 chemical compounds from six different libraries (Supplementary Table S1) to identify chemical inhibitors of the Dna2 nuclease activity. […] The DNA2 nuclease domain is well conserved among eukaryotes, and therefore we reasoned that inhibitors of yDna2 will likely also work with the human counterpart.
(§2) Initial screen, it was performed with yDna2.[22] Then, the top candidate compounds were tested on hDNA2. Identical reaction conditions were used for assaying the nuclease activity of yDna2 and hDNA2. […] The reaction buffer was 20 mM HEPES/NaOH, pH 7.5, 60 mM KCl, 1 mM DTT, 100 μg/ml bovine serum albumin and 0.05% Triton X-100. The nuclease assay was initiated by adding MgCl2 (3 mM final concentration). T5 nuclease was assayed in the buffer (50 mM potassium acetate, pH 7.9, 20 mM Tris-acetate, 10 mM magnesium acetate and 1 mM DTT) provided by the vendor (NEB, Ipswich, MA, USA). The concentration of the fluorogenic substrate was 0.1 μM. The optimal amount of yDna2, hDNA2 and T5 nuclease was determined by utilizing the Kaleidagraph software (Reading, PA, USA) to fit the data according to Michaelis Menton Kinetics (V=V0+Vmax*x/(Km+x)). […] The Z’ value was calculated as previously described.[50] Cell proliferation was determined using 4,6-diamidino-2-phenylindole staining followed by high-throughput microscopy in a 384-well plate setup. In brief, cells were fixed with formaldehyde, washed and stained with 4,6-diamidino-2-phenylindole and the number of nuclei in each well counted by automated microscopy. The data were analyzed as described.[51]

T5 nuclease = molecular target: T2, T5 nuclease (Escherichia phage T5, UniProt P06229); experiment: T5 nuclease counter-screen (fluorescence nuclease assay); format: biochemical; parameters: concentration or dose not given beside the values; conditions: re-screening against T5 nuclease
T2 construct: purchased NEB
Description: as §1, §2

U2OS cells = experiment: Cell-based viability/proliferation screen, DAPI staining and automated microscopy; parameters: species or system human; conditions: Homo sapiens, 10 pM to 10 μM, DAPI staining, read-out: IC50 from Screening Cell Based
Description: The biological effectiveness of the 39 compounds selected by re-screening was determined by measuring their half maximal inhibitory concentration (IC50) biochemically and in a cell-based system using the 384-well platform (Supplementary Table S2). […] We conducted the viability assay in duplicate on three separate occasions using a concentration range of 10 pM to 10 μM for each compound. Cell proliferation was determined using 4,6-diamidino-2-phenylindole staining and microscopy.
In addition, a second dark quencher ZEN (N,N-diethyl-4-(4-nitronaphthalen-1-ylazo)-phenylamine, absorption max.=532 nm) is placed between 9th and 10th base (Figure 2a). Initial screen, it was performed with yDna2.[22] Then, the top candidate compounds were tested on hDNA2. Identical reaction conditions were used for assaying the nuclease activity of yDna2 and hDNA2. […] The reaction buffer was 20 mM HEPES/NaOH, pH 7.5, 60 mM KCl, 1 mM DTT, 100 μg/ml bovine serum albumin and 0.05% Triton X-100. The nuclease assay was initiated by adding MgCl2 (3 mM final concentration). T5 nuclease was assayed in the buffer (50 mM potassium acetate, pH 7.9, 20 mM Tris-acetate, 10 mM magnesium acetate and 1 mM DTT) provided by the vendor (NEB, Ipswich, MA, USA). The concentration of the fluorogenic substrate was 0.1 μM. The optimal amount of yDna2, hDNA2 and T5 nuclease was determined by utilizing the Kaleidagraph software (Reading, PA, USA) to fit the data according to Michaelis Menton Kinetics (V=V0+Vmax*x/(Km+x)). […] All the compounds were dissolved in DMSO and DMSO alone was used as control; the final concentration of DMSO was at 3.33% for protein-based assay and 0.1% for cell-based assay. The Z’ value was calculated as previously described.[50] Cell proliferation was determined using 4,6-diamidino-2-phenylindole staining followed by high-throughput microscopy in a 384-well plate setup. In brief, cells were fixed with formaldehyde, washed and stained with 4,6-diamidino-2-phenylindole and the number of nuclei in each well counted by automated microscopy. The data were analyzed as described.[51]

[1] = screen at fixed inhibitor concentration (33.33 μM), 0.09 nM Dna2

T2 sequence (P06229 whole entry): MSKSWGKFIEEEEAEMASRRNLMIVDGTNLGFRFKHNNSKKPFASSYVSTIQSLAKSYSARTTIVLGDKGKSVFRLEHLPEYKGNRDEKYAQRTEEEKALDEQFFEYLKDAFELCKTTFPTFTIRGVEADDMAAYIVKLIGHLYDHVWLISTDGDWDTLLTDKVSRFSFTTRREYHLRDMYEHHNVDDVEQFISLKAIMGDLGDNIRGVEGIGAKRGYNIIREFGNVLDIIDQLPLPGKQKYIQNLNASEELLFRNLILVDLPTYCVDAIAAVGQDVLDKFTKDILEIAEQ
T1 sequence (P38859 whole entry): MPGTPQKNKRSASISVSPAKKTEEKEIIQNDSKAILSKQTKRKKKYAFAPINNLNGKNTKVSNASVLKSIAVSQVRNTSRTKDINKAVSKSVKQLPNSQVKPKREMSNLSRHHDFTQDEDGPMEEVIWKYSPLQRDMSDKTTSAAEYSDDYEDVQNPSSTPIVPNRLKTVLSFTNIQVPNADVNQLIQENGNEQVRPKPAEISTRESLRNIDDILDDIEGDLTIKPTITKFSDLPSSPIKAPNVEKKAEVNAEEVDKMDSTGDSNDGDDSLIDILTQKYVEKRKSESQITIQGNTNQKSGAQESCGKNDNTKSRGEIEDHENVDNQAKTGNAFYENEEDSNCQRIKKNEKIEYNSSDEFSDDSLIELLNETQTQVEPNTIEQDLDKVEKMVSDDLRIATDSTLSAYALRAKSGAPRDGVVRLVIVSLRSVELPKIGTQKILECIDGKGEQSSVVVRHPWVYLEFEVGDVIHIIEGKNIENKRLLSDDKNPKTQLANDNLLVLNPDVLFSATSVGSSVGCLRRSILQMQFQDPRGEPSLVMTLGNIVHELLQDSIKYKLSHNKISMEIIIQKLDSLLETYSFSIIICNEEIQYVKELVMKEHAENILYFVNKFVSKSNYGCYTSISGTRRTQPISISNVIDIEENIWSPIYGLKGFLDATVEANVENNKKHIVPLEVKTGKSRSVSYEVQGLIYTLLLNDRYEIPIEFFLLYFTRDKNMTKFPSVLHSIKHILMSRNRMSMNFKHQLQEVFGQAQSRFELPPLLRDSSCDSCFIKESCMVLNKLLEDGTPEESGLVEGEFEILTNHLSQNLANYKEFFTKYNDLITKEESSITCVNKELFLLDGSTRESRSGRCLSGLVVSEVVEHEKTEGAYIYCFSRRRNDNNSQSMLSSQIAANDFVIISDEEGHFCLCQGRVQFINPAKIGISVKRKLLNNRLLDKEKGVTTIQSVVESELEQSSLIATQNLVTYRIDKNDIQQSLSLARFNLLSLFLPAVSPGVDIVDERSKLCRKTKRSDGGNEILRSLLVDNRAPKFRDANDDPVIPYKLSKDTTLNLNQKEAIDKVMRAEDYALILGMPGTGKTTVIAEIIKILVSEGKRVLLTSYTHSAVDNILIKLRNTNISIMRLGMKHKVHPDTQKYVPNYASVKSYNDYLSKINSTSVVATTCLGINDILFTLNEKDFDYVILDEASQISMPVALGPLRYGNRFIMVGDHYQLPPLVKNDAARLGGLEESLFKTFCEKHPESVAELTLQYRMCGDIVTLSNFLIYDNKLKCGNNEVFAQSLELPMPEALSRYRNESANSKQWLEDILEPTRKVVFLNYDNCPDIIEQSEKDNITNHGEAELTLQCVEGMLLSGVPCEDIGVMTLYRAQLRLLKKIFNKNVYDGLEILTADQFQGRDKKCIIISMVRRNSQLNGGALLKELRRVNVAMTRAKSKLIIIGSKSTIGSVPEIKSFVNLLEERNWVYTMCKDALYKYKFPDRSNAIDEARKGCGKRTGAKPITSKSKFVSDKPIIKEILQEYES

CN1CCN(c2ccc3nc(-c4c(N)c5c(F)cccc5[nH]c4=O)[nH]c3c2)CC1 [(Dovitinib) CHIR258, Dovitinib, reference compound]
inhibition at 33.33 µM (yDna2; [1]): 54% | % Inhibition T5 nuclease (T5 nuclease): 60.2%

CCCCC(CC)CNC(=N)NC(=N)NCCCCCCNC(=N)NC(=N)NCC(CC)CCCC (stereo not drawn) [Alexidine dihydrochloride, reference compound]
inhibition at 33.33 µM (yDna2; [1]): 63.5% | % Inhibition T5 nuclease (T5 nuclease): 100%

CN(C)C/C=C/C(=O)Nc1cc2c(Nc3ccc(F)c(Cl)c3)ncnc2cc1O[C@H]1CCOC1 [BIBW2992, reference compound]
IC50 (U2OS cells): 1.2 µM | IC50 (yDna2; compounds that inhibit yDna2 but not T5 nuclease, 384-well platform, read-out: IC50 from Screening In Vitro): 7.2 µM

COc1cc(-c2ccc(N=Nc3ccc4c(S(=O)(=O)[O-])cc(S(=O)(=O)[O-])c(N)c4c3O)c(OC)c2)ccc1N=Nc1ccc2c(S(=O)(=O)[O-])cc(S(=O)(=O)[O-])c(N)c2c1O.[Na+].[Na+].[Na+].[Na+] [Chicago Sky blue 6B, reference compound]
% Inhibition yDna2 (yDna2; [1]): 69% | % Inhibition T5 nuclease (T5 nuclease): 100%

COc1ccc2c(C)nc(NC3=NC(C)(C)CC(C)=N3)nc2c1 [Compound 5309857]
% Inhibition yDna2 (yDna2; [1]): 59.9% | % Inhibition T5 nuclease (T5 nuclease): 77.3%

COc1cccc2c1C(=O)c1c(O)c3c(c(O)c1C2=O)C[C@@](O)(C(C)=O)C[C@@H]3O[C@H]1C[C@H](N)[C@H](O)[C@H](C)O1 [Daunorubicin hydrochloride, reference compound]
inhibition at 33.33 µM (yDna2): 100% | % Inhibition T5 nuclease (T5 nuclease): 98.1%

COc1cccc2c1C(=O)c1c(O)c3c(c(O)c1C2=O)C[C@@](O)(C(=O)CO)C[C@@H]3O[C@H]1C[C@H](N)[C@H](O)[C@H](C)O1 [Doxorubicin hydrochloride, reference compound]
inhibition at 33.33 µM (yDna2; [1]): 100% | % Inhibition T5 nuclease (T5 nuclease): 100%

O=C1c2c(O)ccc(O)c2C(=O)c2c(NCCNCCO)ccc(NCCNCCO)c21 [Mitoxantrone dihydrochloride, reference compound]
inhibition at 33.33 µM (yDna2; [1]): 100% | % Inhibition T5 nuclease (T5 nuclease): 100%

COc1ccc2nc(C)cc(NCCCCCCCCCNc3cc(C)nc4ccc(OC)cc34)c2c1 [NSC10010]
% Inhibition yDna2 (yDna2; [1]): 90.3% | % Inhibition T5 nuclease (T5 nuclease): 93.7%

CCN(CC)CCCC(C)Nc1nc(C)cc(Nc2ccc3nc(C)cc(N)c3c2)n1 (stereo not drawn) [NSC23766, reference compound]
% Inhibition yDna2 (yDna2; [1]): 100% | % Inhibition T5 nuclease (T5 nuclease): 94.7%

Cc1cc(N)c2cc(NC(=O)/C=C/c3ccccc3Cl)ccc2n1 [NSC33353]
% Inhibition yDna2 (yDna2; [1]): 100% | % Inhibition T5 nuclease (T5 nuclease): 100%

Cc1cc2nc3ccc(N(C)C)cc3[s+]c2cc1N [NSC36758]
inhibition at 33.33 µM (yDna2; [1]): 100% | % Inhibition T5 nuclease (T5 nuclease): 83.9%

O=C(Nc1ccc(C2=NCCN2)cc1)c1ccc(C(=O)Nc2ccc(C3=NCCN3)cc2)c(Cl)c1 [NSC60339]
inhibition at 33.33 µM (yDna2): 100% | % Inhibition T5 nuclease (T5 nuclease): 100%

O=C(Nc1ccc(C2=NCCN2)cc1)c1ccc(Cl)c(C(=O)Nc2ccc(C3=NCCN3)cc2)c1 [NSC67436]
% Inhibition yDna2 (yDna2; [1]): 100% | % Inhibition T5 nuclease (T5 nuclease): 100%

Cc1cc2c(c3oc(C4(C)OC4C4OC4C)cc(=O)c13)C(=O)c1c(O)c(C3CC(C)(N(C)C)C(O)C(C)O3)cc(C3CC(N(C)C)C(O)C(C)O3)c1C2=O (stereo not drawn) [NSC70929]
% Inhibition yDna2 (yDna2; [1]): 100% | % Inhibition T5 nuclease (T5 nuclease): 100%

COc1cccc2c1C(=O)c1c(O)c3c(c(O)c1C2=O)CC(O)(/C(C)=N/O)CC3OC1CC(N)C(O)C(C)O1 (stereo not drawn) [NSC143491]
% Inhibition yDna2 (yDna2; [1]): 100% | % Inhibition T5 nuclease (T5 nuclease): 97.9%

O=C(Nc1ccc(Nc2ccncc2)cc1)c1ccc(Nc2ccnc3ccc([N+](=O)[O-])cc23)cc1 [NSC146771]
% Inhibition yDna2 (yDna2; [1]): 76.5% | % Inhibition T5 nuclease (T5 nuclease): 100%

Cc1cc(N)c2ccccc2[n+]1CCCCCCCCCC[n+]1c(C)cc(N)c2ccccc21 [NSC166454]
inhibition at 33.33 µM (yDna2; [1]): 55.4% | % Inhibition T5 nuclease (T5 nuclease): 88.9%

NC(N)=NCCCS(=O)(=O)Nc1ccc(Nc2c3ccccc3nc3cc([N+](=O)[O-])ccc23)cc1 [NSC177365]
% Inhibition yDna2 (yDna2; [1]): 83.3% | % Inhibition T5 nuclease (T5 nuclease): 100%

c1ccc2c(NCCCCCCCCNc3c4ccccc4nc4ccccc34)c3ccccc3nc2c1 [NSC219734]
% Inhibition yDna2 (yDna2; [1]): 85% | % Inhibition T5 nuclease (T5 nuclease): 100%

Cn1ccc(=Nc2ccc(NC(=O)c3ccc(N=c4ccn(C)c5ccc([N+](=O)[O-])cc45)cc3)cc2)cc1 [NSC260594]
% Inhibition yDna2 (yDna2; [1]): 94.8% | % Inhibition T5 nuclease (T5 nuclease): 100%

COc1ccc2c(NCCCCCCNc3c4ccccc4nc4cc(OC)ccc34)c3ccccc3nc2c1 [NSC260610]
inhibition at 33.33 µM (yDna2; [1]): 100% | % Inhibition T5 nuclease (T5 nuclease): 100%

Cc1cc(NCCCCCCCNc2cc(C)nc3cc(N)ccc23)c2ccc(N)cc2n1 [NSC273829]
inhibition at 33.33 µM (yDna2; [1]): 74.4% | % Inhibition T5 nuclease (T5 nuclease): 56.5%

Nc1ccc(Cn2ccc3c4c(N)nc(N)nc4ccc32)cc1 [NSC309401]
% Inhibition yDna2 (yDna2; [1]): 100% | % Inhibition T5 nuclease (T5 nuclease): 100%

CC(=O)[O-].Cc1c2cc[n+](CCN3CCCCC3)cc2c(C)c2c1[nH]c1ccc(O)cc12 [NSC311153]
% Inhibition yDna2 (yDna2; [1]): 100% | % Inhibition T5 nuclease (T5 nuclease): 100%

CCN(CC)Cc1cc2[nH]c3c4ccc(Cl)cc4ncc3c2cc1OC [NSC317605]
% Inhibition yDna2 (yDna2; [1]): 100% | % Inhibition T5 nuclease (T5 nuclease): 99.2%

CO[C@H]1C[C@@H]2\C=C(C)/C=C/C=C\C(=O)N[C@H](c3ccccc3)C/C=C/CC[C@H](O)CC(=O)C2=C1O [NSC343256]
% Inhibition yDna2 (yDna2; [1]): 71% | % Inhibition T5 nuclease (T5 nuclease): 72%

ClN=C1C=CC=CC1=NCl [NSC344494]
% Inhibition yDna2 (yDna2; [1]): 51.4% | % Inhibition T5 nuclease (T5 nuclease): 97.9%

Cl.O=C1c2cccc(NCCCNCCO)c2C(=O)c2cccc(NCCCNCCO)c21 [NSC363998]
% Inhibition yDna2 (yDna2; [1]): 99% | % Inhibition T5 nuclease (T5 nuclease): 74.5%

[Mo] [NSC622124]
% Inhibition yDna2 (yDna2; [1]): 93.4% | % Inhibition T5 nuclease (T5 nuclease): 96.1%

CC[N+](C)(CC)CCC[n+]1c(-c2ccccc2)c2cc(N)ccc2c2ccc(N)cc21.[I-].[I-] [Propidium Iodide, reference compound]
% Inhibition yDna2 (yDna2; [1]): 100% | % Inhibition T5 nuclease (T5 nuclease): 100%

CCN(CC)CCCC(C)Nc1c2ccc(Cl)cc2nc2ccc(OC)cc12 (stereo not drawn) [Quinacrine dihydrochloride, reference compound]
inhibition at 33.33 µM (yDna2; [1]): 67.8% | % Inhibition T5 nuclease (T5 nuclease): 55.4%

Deqalinium dichloride [reference compound]
% Inhibition yDna2 (yDna2; [1]): 100% | % Inhibition T5 nuclease (T5 nuclease): 100%
